Results taken from US20110033393A1, “Hydrazone Compounds and Their Use” (priority 2009, published 2011).

biological target: T1, human TRPM5 ion channel (Homo sapiens, UniProt Q9NZQ8); test: FLIPR-based assay for membrane potential and calcium mobilization (TRPM5 inhibiting activity); assay type: cell-based; settings: live cells, 30° C., read-out: hTrpM5 IC50
T1 sequence (Q9NZQ8 1-1165): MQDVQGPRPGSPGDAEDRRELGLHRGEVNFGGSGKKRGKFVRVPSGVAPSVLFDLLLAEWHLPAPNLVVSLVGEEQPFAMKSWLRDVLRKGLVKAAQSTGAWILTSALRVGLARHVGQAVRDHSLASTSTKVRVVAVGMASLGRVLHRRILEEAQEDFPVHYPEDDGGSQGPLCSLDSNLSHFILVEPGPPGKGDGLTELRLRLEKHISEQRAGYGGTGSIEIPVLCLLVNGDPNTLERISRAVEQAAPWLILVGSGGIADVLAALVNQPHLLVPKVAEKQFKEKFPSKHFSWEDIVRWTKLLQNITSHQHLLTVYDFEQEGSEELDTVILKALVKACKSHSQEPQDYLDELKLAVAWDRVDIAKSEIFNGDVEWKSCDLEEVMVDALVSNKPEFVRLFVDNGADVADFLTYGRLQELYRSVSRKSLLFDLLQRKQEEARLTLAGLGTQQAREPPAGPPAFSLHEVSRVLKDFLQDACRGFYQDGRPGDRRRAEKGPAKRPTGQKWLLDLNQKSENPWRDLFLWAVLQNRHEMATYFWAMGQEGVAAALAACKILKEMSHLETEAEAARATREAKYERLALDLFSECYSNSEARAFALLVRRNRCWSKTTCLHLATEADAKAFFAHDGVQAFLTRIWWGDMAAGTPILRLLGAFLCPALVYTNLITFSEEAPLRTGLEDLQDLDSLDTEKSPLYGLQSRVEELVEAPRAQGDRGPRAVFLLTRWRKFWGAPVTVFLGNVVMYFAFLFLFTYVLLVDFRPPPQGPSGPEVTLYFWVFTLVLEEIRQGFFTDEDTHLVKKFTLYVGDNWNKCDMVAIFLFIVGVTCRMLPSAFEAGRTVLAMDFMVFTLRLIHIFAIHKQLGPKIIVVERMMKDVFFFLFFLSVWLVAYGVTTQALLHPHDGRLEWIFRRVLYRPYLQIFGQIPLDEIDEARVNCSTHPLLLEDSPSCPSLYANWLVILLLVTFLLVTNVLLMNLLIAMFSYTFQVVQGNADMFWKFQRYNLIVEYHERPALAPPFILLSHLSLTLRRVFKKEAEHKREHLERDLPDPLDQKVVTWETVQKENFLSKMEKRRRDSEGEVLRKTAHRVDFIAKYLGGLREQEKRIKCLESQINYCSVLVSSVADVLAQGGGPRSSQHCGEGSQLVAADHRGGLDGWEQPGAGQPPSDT
Experimental: The activity of compounds of the present invention on human TRPM5 ion channel was measured using the FLIPR-based (fluorescent imaging plate reader) assay for membrane potential and calcium mobilization described in U.S. Patent Application Publication No. 2008/0249189 A1 in live cells, wherein the assay is performed at 30° C. Determinations of affinity and efficacy were derived from measurements of TRPM5 activity over a range of compound concentrations. The concentration range was achieved by 10 serial dilutions (either 2-fold or 3-fold decrements) from a maximum concentration of no greater that 100 μM. Curver fitting was performed on the resulting data to yield concentration-effect functions, from which the half-maximal inhibitory concentration (IC50) was derived for all the tested compounds. The IC50 values were considered to be accurate reflections of affinity between the compounds and TRPM5.
Representative compounds of the present invention have been tested in the FLIPR assay for TRPM5 inhibiting activity, which is described in detail above.

IC50 [nM] | Compound
60 | COc1cc(/C=N/NC(=O)CCn2cc(C)c3c(C)cccc32)ccc1OCc1cnccn1 [Example 21, 3-(3,4-Dimethyl-1H-indol-1-yl)-N′-(3-methoxy-4-(pyrazin-2-ylmethoxy)benzylidene)propanehydrazide]
160 | Cc1cc(/C=N/NC(=O)CCc2cn(C)c3ccccc23)cc2cccnc12 [Example 23, 3-(1-Methyl-1H-indol-3-yl)-N′-((8-methylquinolin-6-yl)methylene)propanehydrazide]
2000 | COc1cccc(CCC(=O)N/N=C/c2cc(C)c3ncccc3c2)n1 [Example 26, 3-(6-Methoxypyridin-2-yl)-N′-((8-methylquinolin-6-yl)methylene)propanehydrazide]
1.4 | COc1cc(/C=N/NC(=O)CCn2cc(C)c3c(C)cccc32)cc2cccnc12 [Example 27, 3-(3,4-Dimethyl-1H-indol-1-yl)-N′-((8-methoxyquinolin-6-yl)methylene)propanehydrazide]
45 | COc1cc(/C=N/NC(=O)C2CC2c2cccc(Cl)c2)cc2cccnc12 (stereo not drawn) [Example 30, trans-2-(3-Chlorophenyl)-N′-((8-methoxyquinolin-6-yl)methylene)cyclopropanecarbohydrazide]
2200 | Cc1cn(CCC(=O)N/N=C/c2ccc3nccnc3c2)c2ccccc12 [Example 32, 3-(3-Methyl-1H-indol-1-yl)-N′-(quinoxalin-6-ylmethylene)propanehydrazide]
1300 | Cc1cn(CCC(=O)N/N=C/c2ccc3ncccc3n2)c2ccccc12 [Example 33, N′-((1,5-Naphthyridin-2-yl)methylene)-3-(3-methyl-1H-indol-1-yl)propanehydrazide]
430 | Cc1cn(CCC(=O)NN=Cc2ccc3nnccc3c2)c2ccccc12 [Example 34, N′-(Cinnolin-6-ylmethylene)-3-(3-methyl-1H-indol-1-yl)propanehydrazide]
830 | Cc1cc(/C=N/NC(=O)CSc2cccc(Cl)c2)cc2cccnc12 [Example 35, 2-(3-Chlorophenylthio)-N′-((8-methylquinolin-6-yl)methylene)acetohydrazide]
810 | COc1ccc(/C=N/NC(=O)CCc2cnc3ccccc3c2)cc1OC [Example 39, N′-(3,4-dimethoxybenzylidene)-3-(quinolin-3-yl)propanehydrazide]
510 | Cc1cc(/C=N/NC(=O)C2CC2c2ccc(F)cc2)cc2cccnc12 (stereo not drawn) [Example 40, trans-2-(4-Fluorophenyl)-N′-((8-methylquinolin-6-yl)methylene)cyclopropanecarbohydrazide]
5400 | Cc1cc(/C=N/NC(=O)C2CC2c2ccc(Cl)cn2)cc2cccnc12 (stereo not drawn) [Example 43, trans-2-(5-Chloropyridin-2-yl)-N′-((8-methylquinolin-6-yl)methylene)cyclopropanecarbohydrazide]
550 | O=C(N/N=C/c1cc(F)c2ncccc2c1)C1CC1c1ccccc1 (stereo not drawn) [Example 44, trans-N′-((8-Fluoroquinolin-6-yl)methylene)-2-phenylcyclopropanecarbohydrazide]
24 | Cc1cccc2c1c(C)cn2CCC(=O)N/N=C/c1ccc2c(c1)OCCCO2 [Example 45]
6 | COc1ccc(/C=N/NC(=O)CCn2cc(C)c3c(OC)cccc32)cc1OC [Example 46, N′-(3,4-Dimethoxybenzylidene)-3-(4-methoxy-3-methyl-1H-indol-1-yl)propanehydrazide]
1500 | COc1ccc(/C=N/NC(=O)CCn2cc(CN(C)C)c3c(Cl)cccc32)cc1OC [Example 47, 3-(4-Chloro-3-((dimethylamino)methyl)-1H-indol-1-yl)-N′-(3,4-dimethoxybenzylidene)propanehydrazide]
9 | COc1ccc(/C=N/NC(=O)CCc2cn(C)c3c(C)cccc23)cc1OC [Example 48, N′-(3,4-Dimethoxybenzylidene)-3-(1,7-dimethyl-1H-indol-3-yl)propanehydrazide]

IC50 [nM] | Compound
1.3 | COc1ccc(/C=N/NC(=O)CCn2cc(Cl)c3c(C)cccc32)cc1OC [Example 49, 3-(3-Chloro-4-methyl-1H-indol-1-yl)-N′-(3,4-dimethoxybenzylidene)propanehydrazide]
260 | COc1ccc(/C=N/NC(=O)CCn2cc(C)c3c(CO)cccc32)cc1OC [Example 50, N′-(3,4-Dimethoxybenzylidene)-3-(4-(hydroxymethyl)-3-methyl-1H-indol-1-yl)propanehydrazide]
1700 | COc1ccc(/C=N/NC(=O)C(C)S(=O)(=O)c2cccc(Cl)c2)cc1OC (stereo not shown) [Example 51, 2-(3-Chlorophenylsulfonyl)-N′-(3,4-dimethoxybenzylidene)propanehydrazide]
2000 | COc1cc(C)c2cc(/C=N/NC(=O)CCn3cc(C)c4ccccc43)ccc2n1 [Example 52, N′-((2-Methoxy-4-methylquinolin-6-yl)methylene)-3-(3-methyl-1H-indol-1-yl)propanehydrazide]
> 30000 | COc1cnc(/C=N/NC(=O)C(C)Sc2cccc(Cl)c2)cc1OC (stereo not shown) [Example 53, 2-(3-Chlorophenylthio)-N′-((4,5-dimethoxypyridin-2-yl)methylene)propanehydrazide]
170 | COc1ccc(/C=N/NC(=O)CCn2ccc3ccccc32)cc1OC [Example 54, N′-(3,4-dimethoxybenzylidene)-3-(1H-indol-1-yl)propanehydrazide]
660 | COc1ccc(/C=N/NC(=O)CSc2ccccc2)cc1OC [Example 55, N′-(3,4-dimethoxybenzylidene)-2-(phenylthio)acetohydrazide]
17 | COc1ccc(/C=N/NC(=O)CCn2cc(C)c3ccccc32)cc1OC [Example 56, N′-(3,4-dimethoxybenzylidene)-3-(3-methyl-1H-indol-1-yl)propanehydrazide]
12 | COc1ccc(/C=N/NC(=O)CCn2ccc3c(C)cccc32)cc1OC [Example 57, N′-(3,4-dimethoxybenzylidene)-3-(4-methyl-1H-indol-1-yl)propanehydrazide]
180 | Cc1cn(CCC(=O)N/N=C/c2ccc3c(c2)OCCCO3)c2ccccc12 [Example 58, N′-((3,4-dihydro-2H-benzo[b][1,4]di-oxepin-7-yl)methylene)-3-(3-methyl-1H-indol-1-yl)propanehydrazide]
340 | Cc1cn(CCC(=O)N/N=C/c2ccc3ncccc3c2)c2ccccc12 [Example 59, 3-(3-methyl-1H-indol-1-yl)-N′-(quinolin-6-ylmethylene)-propanehydrazide]
750 | Cc1cn(CCC(=O)N/N=C/c2ccc3c(c2)OCCN3C)c2ccccc12 [Example 60, 3-(3-methyl-1H-indol-1-yl)-N′-((4-methyl-3,4-dihydro-2H-benzo[b][1,4]-oxazin-7-yl)methylene)propanehydrazide]
210 | Cc1cnc2ccc(/C=N/NC(=O)CCn3cc(C)c4ccccc43)cc2c1 [Example 61, 3-(3-methyl-1H-indol-1-yl)-N′-((3-methylquinolin-6-yl)methylene)-propanehydrazide]
370 | Cc1ccnc2ccc(/C=N/NC(=O)CCn3cc(C)c4ccccc43)cc12 [Example 62, 3-(3-methyl-1H-indol-1-yl)-N′-((4-methylquinolin-6-yl)methylene)-propanehydrazide]
120 | COc1ccnc2ccc(/C=N/NC(=O)CCn3cc(C)c4ccccc43)cc12 [Example 63, N′-((4-methoxyquinolin-6-yl)methylene)-3-(3-methyl-1H-indol-1-yl)propanehydrazide]
5 | Cc1cc(/C=N/NC(=O)CCn2cc(C)c3c(C)cccc32)cc2cccnc12 [Example 64, 3-(3,4-dimethyl-1H-indol-1-yl)-N′-((8-methylquinolin-6-yl)-methylene)propanehydrazide]
200 | COc1ccc(/C=N/NC(=O)NCCc2ccccc2)cc1OC [Example 65, 2-(3,4-dimethoxybenzylidene)-N-phenethylhydrazinecarboxamide]
